Assay results taken from patent publication US11389465B2, “Phosphorylated hexaacyl disaccharides (PHADs) for treating or preventing infections” (VANDERBILT UNIVERSITY, priority 2017, dated 2022).
Entries after “also recorded” stand apart in the source; their conditions may differ.

What was measured:
P. aeruginosa = settings: head to head with MPLA, 20 μg/mouse
[1] = test system: Gram negative and Gram positive bacterial infections; settings: mice primed with LPS; cited from earlier work

Row | Compound | efficacy at augmenting host resistance to bacterial infection compared with MPLA (P. aeruginosa) | resistance to infection of primed mice [1]
1 | CCCCCCCCCCCCCC(=O)OC(CCCCCCCCCCC)CC(=O)NC1C(OCC2OC(O)C(NC(=O)CC(O)CCCCCCCCCCC)C(O)C2O)OC(CO)C(OP(=O)(O)O)C1OC(=O)CC(CCCCCCCCCCC)OC(=O)CCCCCCCCCCCCC.N (stereo not shown) [3D-PHAD, 3-deacyl phosphorylated hexaacyl disaccharide] | as effective as MPLA; also recorded: as efficacious as MPLA | 
2 | Lipopolysaccharide [LPS] |  | improved resistance to Gram negative and Gram positive bacterial infections
3 | CCCCCCCCCCCCCC(=O)OC(CCCCCCCCCCC)CC(=O)NC1C(OCC2OC(O)C(NC(=O)CC(O)CCCCCCCCCCC)C(OC(=O)CC(O)CCCCCCCCCCC)C2O)OC(CO)C(OP(=O)(O)O)C1OC(=O)CC(CCCCCCCCCCC)OC(=O)CCCCCCCCCCCCC.N (stereo not shown) [PHAD, phosphorylated hexaacyl disaccharide] | as effective as MPLA | 
4 | CCCCCCCCCCCCCC(=O)OC(CCCCCCCCCCC)CC(=O)NC1C(O)OC(COC2OC(CO)C(OP(=O)(O)O)C(OC(=O)CC(CCCCCCCCCCC)OC(=O)CCCCCCCCCCCCC)C2NC(=O)CC(CCCCCCCCCCC)OC(=O)CCCCCCCCCCCCC)C(O)C1O.N (stereo not shown) [3D(6-acyl) PHAD, 3-D (6-acyl) phosphorylated hexaacyl disaccharide] | as effective as MPLA | 
